The text below walks through data of BindingDB's records for patent US20240398793 (Celltaxis, 2024).

The structures appear in SMILES notation.

The assay deals with T1, Leukotriene A-4 hydrolase (Homo sapiens, UniProt P09960).
T1 sequence (P09960 whole entry): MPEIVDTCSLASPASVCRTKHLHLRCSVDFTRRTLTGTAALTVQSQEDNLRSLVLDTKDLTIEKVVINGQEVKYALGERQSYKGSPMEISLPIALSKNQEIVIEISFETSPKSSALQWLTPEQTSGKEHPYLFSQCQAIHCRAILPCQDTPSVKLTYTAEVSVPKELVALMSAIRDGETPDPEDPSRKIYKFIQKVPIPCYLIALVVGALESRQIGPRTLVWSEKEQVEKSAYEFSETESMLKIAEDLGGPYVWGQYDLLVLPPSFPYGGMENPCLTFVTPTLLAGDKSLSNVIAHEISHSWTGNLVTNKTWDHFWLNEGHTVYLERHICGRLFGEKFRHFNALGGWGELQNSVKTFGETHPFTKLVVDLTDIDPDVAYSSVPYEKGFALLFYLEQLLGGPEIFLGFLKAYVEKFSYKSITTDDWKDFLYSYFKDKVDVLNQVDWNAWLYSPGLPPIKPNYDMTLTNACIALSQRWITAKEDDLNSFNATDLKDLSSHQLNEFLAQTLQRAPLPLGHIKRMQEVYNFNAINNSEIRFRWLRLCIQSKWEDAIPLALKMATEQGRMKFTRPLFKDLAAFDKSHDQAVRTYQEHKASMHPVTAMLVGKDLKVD
In words: Homogenous Time Resolved Fluorescence Assay. The source says: The hydrolase-homogeneous time resolved fluorescence assay is a two-step assay that measures the hydrolysis of LTA4 to LTB4 by analyzing the amount of LTB4 produced. The first step involves the enzymatic conversion of LTA4 to LTB4 and the second step involves the quantification of the LTB4 formed with a homogeneous time resolved fluorescence assay.

What is called IC50 is the point on the concentration scale where inhibition reaches its midpoint. Read a high IC50 as weaker potency in that assay.

Compound `COc1cc(O)cc(CCc2ccccc2O)c1` [US20240398793, Compound 9] displayed an IC50 of 0.5 µM. For `COc1cc(O)cc(CCc2ccc(O)cc2)c1` [US20240398793, Compound 6] the value was 6.4 µM; for `CC(=O)Oc1ccc(/C=C/c2cc(OC(C)=O)cc(OC(C)=O)c2)cc1` [US20240398793, Compound 4], 38.6 µM. As for `CCOc1cc(O)cc(CCc2ccc(O)cc2)c1` [US20240398793, Compound 7], the IC50 was determined as 3.2 µM. Next, `O=c1c(-c2ccc(O)cc2)coc2cc(O)ccc12` [US20240398793, Compound 11]: 15 µM; `O=c1c(-c2ccccc2)coc2cc(O)ccc12` [US20240398793, Compound 13]: 48.2 µM. For `O=C(Cc1ccc(O)cc1)c1ccc(O)cc1O` [US20240398793, Compound 10] the value was 34.2 µM; for `Cc1ccc2c(=O)c(-c3ccc(O)cc3)coc2c1O` [US20240398793, Compound 15], 1.2 µM. `COc1cc(O)cc(CCc2cccc(O)c2)c1` [Batatasin III (4)] displayed an IC50 of 1.7 µM. The IC50 values of the last two compounds are within 1.5-fold of each other.

Regarding `COc1cc(O)cc(/C=C/c2ccc(O)cc2)c1` [US20240398793, Compound 5], the IC50 came to 3.9 µM.
